From US11034685B2, “Aminopyridine derivatives as TAM family kinase inhibitors” (SignalChem Lifesciences Corporation, priority 2013, dated 2021) come the findings set out here.

Format in all cases: biochemical
The target of assay [1] is T1, human Mer (578-872) (Homo sapiens, UniProt Q12866).
T1 construct: GST (N); made in house; host or cells: Sf9 insect cells (baculovirus)
T1 sequence (Q12866 578-872): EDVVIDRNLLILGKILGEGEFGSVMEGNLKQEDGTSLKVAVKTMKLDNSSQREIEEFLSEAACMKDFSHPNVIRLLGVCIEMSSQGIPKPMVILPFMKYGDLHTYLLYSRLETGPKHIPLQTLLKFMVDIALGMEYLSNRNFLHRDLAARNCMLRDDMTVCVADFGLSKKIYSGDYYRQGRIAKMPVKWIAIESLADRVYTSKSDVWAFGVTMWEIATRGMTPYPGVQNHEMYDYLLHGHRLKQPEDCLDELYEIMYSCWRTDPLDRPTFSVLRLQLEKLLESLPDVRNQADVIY
Kind of assay: Kinase enzymatic activity assay ([33P]-ATP phosphate transfer), Mer. The settings on record: inhibitory activity on Mer; class symbols. In short, it runs like this:
(§1)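 Kinases were N-terminal GST-tagged constructs expressed in Sf9 cells, with poly(Glu:Tyr 4:1) as substrate. Reactions ran in MOPS buffer pH 7.2 with MgCl2 and [33P]-ATP (250 μM cocktail stock) for 30 min at room temperature. Filter-bound radioactivity gave % inhibition, and IC50 was taken from serial dilutions.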

Assay [2] concerns the target T2, human Axl (473-end) (Homo sapiens, UniProt P30530).
T2 construct: GST (N); made in house; host or cells: Sf9 insect cells (baculovirus)
T2 sequence (P30530 473-894 limits assumed): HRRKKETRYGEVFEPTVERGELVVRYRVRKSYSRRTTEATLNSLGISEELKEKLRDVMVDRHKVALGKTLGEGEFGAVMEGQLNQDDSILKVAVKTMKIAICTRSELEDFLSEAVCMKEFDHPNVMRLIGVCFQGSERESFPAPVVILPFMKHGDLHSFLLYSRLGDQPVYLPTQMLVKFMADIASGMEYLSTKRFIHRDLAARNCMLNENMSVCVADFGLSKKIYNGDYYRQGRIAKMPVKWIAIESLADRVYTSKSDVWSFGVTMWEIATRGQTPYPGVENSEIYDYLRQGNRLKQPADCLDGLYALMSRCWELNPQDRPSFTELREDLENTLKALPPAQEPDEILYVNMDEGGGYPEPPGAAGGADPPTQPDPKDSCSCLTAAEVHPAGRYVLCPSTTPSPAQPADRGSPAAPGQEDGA
Put plainly: Kinase enzymatic activity assay ([33P]-ATP phosphate transfer), Axl. Particulars: inhibitory activity on Axl; class symbols. In short, it runs like this: as §1

For assay [3], the target named is T3, Recombinant human Tyro3 (455-end) (Homo sapiens, UniProt Q06418).
T3 construct: GST (N); made in house; host or cells: Sf9 insect cells (baculovirus)
T3 sequence (Q06418 455-890 limits assumed): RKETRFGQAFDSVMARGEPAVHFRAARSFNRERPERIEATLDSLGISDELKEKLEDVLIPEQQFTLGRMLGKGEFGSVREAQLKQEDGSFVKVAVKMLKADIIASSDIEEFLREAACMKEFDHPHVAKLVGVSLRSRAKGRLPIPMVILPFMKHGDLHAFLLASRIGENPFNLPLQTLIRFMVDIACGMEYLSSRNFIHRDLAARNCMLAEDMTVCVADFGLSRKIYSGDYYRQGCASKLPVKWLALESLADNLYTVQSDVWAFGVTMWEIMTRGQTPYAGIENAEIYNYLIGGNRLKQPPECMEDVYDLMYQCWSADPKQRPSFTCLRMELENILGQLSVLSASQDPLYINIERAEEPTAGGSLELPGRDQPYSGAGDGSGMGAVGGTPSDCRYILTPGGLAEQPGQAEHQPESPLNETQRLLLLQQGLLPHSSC
Put plainly: Kinase enzymatic activity assay ([33P]-ATP phosphate transfer), Tyro3. Particulars: inhibitory activity on Tyro3; class symbols. In short, it runs like this:
as §1

As a reminder, the IC50 is the point on the concentration scale where inhibition reaches its midpoint. As for `CC(C)(C)OC(=O)N1CCC(n2cc(-c3cnc(N)c(-c4ncc(-c5ccc(Cl)cc5)o4)c3)cn2)CC1` [tert-butyl 4-(4-(6-amino-5-(5-(4-chlorophenyl)oxazol-2-yl)pyridin-3-yl)-1H-pyrazol-1-yl)piperidine-1-carboxylate], the figures for the IC50 in assay [1], in assay [2] and in assay [3] were 1000 to 10000 nM, 500 to 1000 nM and 1000 to 10000 nM, respectively.
As for `CCN1CCC(n2cc(-c3cnc(N)c(-c4nnc(-c5c(Cl)cccc5Cl)o4)c3)cn2)CC1` [3-(5-(2,6-dichlorophenyl)-1,3,4-oxadiazol-2-yl)-5-(1-(1-ethylpiperidin-4-yl)-1H-pyrazol-4-yl)pyridin-2-amine], the IC50 in assay [1], in assay [2] and in assay [3] was less than 500 nM in each case.
In the case of `CC(C)(C)OC(=O)N1CCC(n2cc(-c3cnc(N)c(-c4nnc(-c5cnccn5)o4)c3)cn2)CC1` [tert-butyl 4-(4-(6-amino-5-(5-(pyrazin-2-yl)-1,3,4-oxadiazol-2-yl)pyridin-3-yl)-1H-pyrazol-1-yl)piperidine-1-carboxylate], the figures for the concentration for half-maximal inhibition (IC50) in assay [1], in assay [2] and in assay [3] were 1000 to 10000 nM, less than 500 nM and 1000 to 10000 nM, respectively.
On to `Nc1ncc(-c2cnn(C3CCNCC3)c2)cc1-c1nnc(-c2nc(C(F)(F)F)cs2)o1` [5-(1-(piperidin-4-yl)-1H-pyrazol-4-yl)-3-(5-(4-(trifluoromethyl)thiazol-2-yl)-1,3,4-oxadiazol-2-yl)pyridin-2-amine], for which the half-inhibitory concentration (IC50) in assay [1], in assay [2] and in assay [3] was less than 500 nM each time.
Turning to `CC(C)(C)OC(=O)N1CCC(n2cc(-c3cnc(N)c(-c4ncc(-c5ccccc5)o4)c3)cn2)CC1` [tert-butyl 4-(4-(6-amino-5-(5-phenyloxazol-2-yl)pyridin-3-yl)-1H-pyrazol-1-yl)piperidine-1-carboxylate], the IC50 was 1000 to 10000 nM in assay [1], less than 500 nM in assay [2] and 500 to 1000 nM in assay [3].
The like results for `CC(C)(C)OC(=O)N1CCC(n2cc(-c3cnc(N)c(-c4nnc(Cc5ccccc5)o4)c3)cn2)CC1` [tert-butyl 4-(4-(6-amino-5-(5-benzyl-1,3,4-oxadiazol-2-yl)pyridin-3-yl)-1H-pyrazol-1-yl)piperidine-1-carboxylate] were, in that order, 1000 to 10000 nM, less than 500 nM and 1000 to 10000 nM.
